# Patent publication US20100216661A1, “Diagnostic Assay” (priority 2007, published 2010)
# Test system: anti-Fy^b monoclonal antibody (LM447)
# Assay: Phage ELISA (capture ELISA) of phage-peptides on coated anti-Fy^b antibody
# Format: binding, Murine
# Conditions: FIG. 1; LM447 coated from 10 μg/ml stock; phage culture supernatant; OD450 greater than 0.1 considered positive; 20 phage assayed
# Procedure: The ability of the recovered phage-peptides to react with the antibodies used in their selection was confirmed by capture ELISA. A 10 μg/ml stock of appropriate monoclonal antibody was prepared in ELISA coating buffer and 150 μl aliquots were added to wells of an Immulon 4 ELISA plate, and then incubated overnight at 4° C. Unbound antibody was discarded and the wells were blocked with 350 μl of blocking buffer (0.1M NaHCO3/3% skimmed milk powder) for 1 hour at 4° C. The wells were washed three times with 300 μl TBS/0.5% Tween 20 and 100 μl of selected phage culture supernatants were added to appropriate wells for 1 hour at room temperature. Unbound phage were removed and the wells washed six times with 300 μl TBS/0.5% Tween 20. A 1:5000 dilution of horseradish peroxidase (HRP) conjugated anti-M13, secondary antibody was prepared in blocking buffer and 100 μl aliquots added to each well. Following incubation for 1 hour at room temperature the wells were washed six times with 300 μl TBS/0.5% Tween 20. To develop the reactions, a 200 μl aliquot of o-phenylenediamine dihydrochloride (OPD) substrate (Sigma) was added to each well. The absorbance at 450 nm was measured, following incubation at room temperature for 1 hour, by a microplate ELISA reader. An OD450 signal greater than 0.1 was considered positive.
# The phage ELISA results confirmed the binding of the anti-Fy^b monoclonal, LM447. A 10 μg/ml stock of this monoclonal antibody was prepared in ELISA coating buffer and 150 μl aliquots were added to wells of an Immulon 4 ELISA plate, and then incubated overnight at 4° C. Unbound antibody was discarded and the wells were blocked with 350 μl of blocking buffer for 1 hour at 4° C. The wells were washed three times with 300 μl TBS/0.5% Tween 20 and 100 μl of selected phage culture supernatants were added to appropriate wells for 1 hour at room temperature. Unbound phage were removed and the wells washed six times with 300 μl TBS/0.5% Tween 20. A 1:5000 dilution of horseradish peroxidase (HRP) conjugated anti-M13, secondary antibody was prepared in blocking buffer and 100 μl aliquots added to each well. Following incubation for 1 hour at room temperature the wells were washed six times with 300 μl TBS/0.5% Tween 20. To develop the reactions, 200 μl aliquots of o-phenylenediamine dihydrochloride (OPD) substrate (Sigma) was added to each well. The absorbance at 450 nm was measured following incubation at room temperature for 1 hour. The absorbance values at 450 nm, confirmed the binding of 14 (Peptides Fyb1, Fyb2, Fyb4-5, Fyb7-13, Fyb25, 27 & 28) of the 20 phage assayed (see FIG. 1).
row,Substance,Phage ELISA binding of phage-peptide to anti-Fy^b antibody LM447 (absorbance at 450 nm)
1,MFQEHTPAFGGL [Fyb7],phage ELISA signals equally as strong as Peptides Fyb12 and Fyb13
2,MFQPTHWGTRLS [Fyb9],phage ELISA signals equally as strong as Peptides Fyb12 and Fyb13
3,MYQDTPPPRKNV [Fyb1],phage ELISA signals equally as strong as Peptides Fyb12 and Fyb13

# Same assay, conditions: FIG. 1; LM447 coated from 10 μg/ml stock; phage culture supernatant; OD450 greater than 0.1 considered positive; 20 phage assayed; listed as Fybll
row,Substance,Phage ELISA binding of phage-peptide to anti-Fy^b antibody LM447 (absorbance at 450 nm)
1,MVQELPFVLRSK [Fyb11],phage ELISA signals equally as strong as Peptides Fyb12 and Fyb13

# Test system: anti-Fy^b monoclonal antibody (LM447)
# Assay: SPOTs membrane hybridisation with anti-Fy^b antibody
# Format: binding, Murine
# Conditions: FIG. 2; 20 Fyb peptides in duplicate; CPep75 (Spot 21) positive control; 2 μg/ml primary antibody; chemiluminescence
# Procedure: (§1) The peptide mimotopes were synthesised by the SPOT method (Frank; 1992) using F-moc chemistry. The peptides were anchored to an amino-PEG derivatised cellulose membrane (Intavis AG) and synthesised as discrete spots. Synthesis was by stepwise elongation of the peptide chain from C-terminus to the N-terminus, by manual pipetting of the respective amino acids, according to the Sigma Genosys protocol. Incubation times were modified when using Intavis AG membranes. After addition of the final amino acid, the terminal residues and side chains of the peptides were deprotected and the membrane was washed with methanol; air dried and then stored at −20° C. prior to use.
# (§2) A membrane was placed in a 50 ml Falcon tube and blocked overnight at 4° C. with gentle agitation in TBS/0.25% Tween 20/5% skimmed milk powder. A 2 μg/ml dilution of the primary (1°) antibody (monoclonal or polyclonal) was prepared in TBS/0.25% Tween20/5% skimmed milk powder before incubation with the membrane for 1 hour at room temperature on a spiral rotor. Following 4 washes, each for 5 minutes with 20 ml of TBS/0.25% Tween20, the membrane was incubated for 1 hour at room temperature with a 1/5000 dilution of the secondary (2°) antibody, prepared in TBS/0.25% Tween20/5% skimmed milk powder. Peroxidase labelled rabbit anti-mouse IgG (Sigma) was used for the detection of the murine anti-Fy^a (LM487) and anti-Fy^b (LM447) 1° antibodies and peroxidase labelled goat anti-human IgG (Pharmacia) for the detection of the human 1° antibodies. Following 4 washes, each for 5 minutes with 20 ml of TBS/0.25% Tween20, the membrane was blotted to remove excess fluid. Bound antibody was detected by chemiluminescence. ECL detection reagents (Amersham Biosciences) were mixed and overlaid on the membrane for 2 minutes. The chemiluminescent substrate was removed and the membrane blotted to remove excess fluid. Positive spots were visualised following exposure to Hyperfilm ECL (Amersham Biosciences) for a series of short incubation times (5 seconds to 10 minutes).
row,Substance,SPOTs binding of anti-Fy^b antibody LM447 to membrane-synthesised peptide
1,MFQEHTPAFGGL [Fyb7],failed to react
2,MFQPTHWGTRLS [Fyb9],failed to react
3,MVQELPFVLRSK [Fyb11],failed to react
4,MYQDTPPPRKNV [Fyb1],failed to react
5,"PDGDYDANLEAAAP [CPep75, 14-mer immunisation peptide used in the development of the LM447 antibody, reference compound]",Binding was also observed
6,TFQPRSWPNIDL [Fyb12],successfully bound
7,TFQYLDPPPFTP [Fyb13],successfully bound

# Same assay, conditions: FIG. 5; Spots 1-37 = Fya 1-37; Spots 38-40 = Fya17, Fya25, Fya35; Spot 41 Cpep75, 42 Cpep76, 43 CPep118, 44 Fyb1; membranes hybridised in parallel with both antibodies
row,Substance,Reciprocal SPOTs hybridisation: binding of anti-Fy^b monoclonal antibody
1,"PDGDYDANLEAAAP [CPep75, 14-mer immunisation peptide used in the development of the LM447 antibody, reference compound]",capable of binding the anti-Fy^b antibody

# Same assay, conditions: FIG. 6; 16 peptides Fyb72-87; signal dramatically lower than positive control CPep75 (Spot 17)
row,Substance,SPOTs binding of anti-Fy^b antibody LM447 to consensus sequence-derived substituted peptides
1,MFQPDNPPTKNP [Fyb84],capable of binding
2,MFQPDNPPTKNV [Fyb85],capable of binding

# Test system: anti-RhE monoclonal antibody E0002
# Assay: SPOTs membrane hybridisation with anti-RhE monoclonal E0002
# Format: binding, Human
# Conditions: FIG. 9; 36 RhE peptide mimotopes; CPep75 (Spot 37), CPep76 (Spot 38) negative controls
# Procedure: as §1, §2
# The RhD, RhE and Rhe peptide mimotopes (see Tables 4 & 5) were synthesised by SPOTs and hybridisation of the membranes was undertaken with the appropriate antibodies (Table 1). FIGS. 7-10 show examples of peptide mimotopes reacting specifically with the antibody originally used in their selection.
row,Substance,SPOTs binding of anti-RhE monoclonal antibody E0002
1,"RhE25: RhE peptide mimotope, Table 5 (GLSYYALITRYLGAA)",Specific binding

# Test system: anti-RhD monoclonal antibody T22 (LHM 169/80)
# Assay: Biopanning of phage-peptide libraries with anti-RhD T22
# Format: binding, Human
# Conditions: not given
# Description: (§3) Three different phage libraries from New England Biolabs. (Ph.D. 7 and Ph.D. 12 displaying linear 7- and 12-mer peptides, respectively and Ph.D. C7C displaying 7-mer peptides constrained by a disulphide bridge at their termini) and a linear 15mer library (kindly provided by Prof. George P. Smith, University of Missouri) were used in biopanning experiments with 10 different monoclonal antibodies and a polyclonal preparation (Table 1).
# (§4) For each target antibody/library combination, a separate well of a 96-well Immulon 4 flat-bottomed ELISA plate (Thermo Labsystems) was coated with 5 μg of antibody in 150 μl ELISA coating buffer (15 mM Na2CO3, 35 mM NaHCO3, pH9.6). Plates were sealed and incubated at 4° C. overnight. Unbound antibody was discarded and 350 μl of blocking buffer (0.1M NaHCO3/3% skimmed milk powder) was added to each well. Plates were sealed and incubated for 1 hour at 4° C. The blocking buffer was removed and the wells were washed six times with 300 μl TBS/0.1% Tween 20. Approximately 2×10^11 plaque forming units (pfu) in 100 μl TBS/0.1% Tween 20 were added to each well and the plates were incubated at room temperature for 1 hour. Wells were washed ten times with 300 μl TBS/0.1% Tween 20. Bound phage were eluted by incubation with 100 μl of 0.2M glycine-HCl/BSA, pH2.2 (1 mg/ml) for 10 minutes, then neutralised with 15 μl of 1M Tris-HCL (pH9.1). An aliquot of the Round 1 eluate was removed and titred. The remainder of the eluted phage were amplified by infection of E. coli ER2538 cells for 4.5 hours at 37° C. The cultures were centrifuged for 10 minutes at 10,000 rpm at 4° C. The supernatants were recovered, ⅙ volume PEG/NaCl (20% polyethylene glycol 8000; 2.5M NaCl) added, then incubated overnight at 4° C. The PEG-precipitated phage were centrifuged at 10,000 rpm for 15 minutes at 4° C. The supernatant was removed and the phage pellet resuspended in 200 μl TBS. Two further rounds of panning were undertaken and approximately 2×10^11 pfu of the Round 2 or Round 3 amplified eluates were used as input phage. Round 3 eluates were titrated but not amplified. Individual plaques were amplified and subjected to PCR amplification, prior to DNA sequence analysis. The specificity of peptide-antibody binding was subsequently determined using both phage ELISA and SPOTs techniques.
row,Substance,Panning Antibody (antibody that selected the phage-peptide in biopanning)
1,RhD 31 (TITDCYPICVSP),RhD T22
2,RhD 32 (WPCHPICLSPRG),RhD T22
3,RhD 33 (AMDCFPICLWNP),RhD T22
4,RhD 34 (WNCFPICHASGL),RhD T22
5,RhD 35 (VYALGCWPICHK),RhD T22
6,RhD 36 (HHVFTPNCYPIC),RhD T22
7,RhD 38 (GNWLFNSCYPLCFPL),RhD T22
8,RhD 39 (AFLGHSHWFPSVASR),RhD T22
9,RhD 40 (QLLCFPICRPEPPVS),RhD T22

# Test system: anti-RhD monoclonal antibody T27 (LHM169/81)
# Assay: Biopanning of phage-peptide libraries with anti-RhD T27
# Format: binding, Human
# Conditions: not given
# Description: as §3, §4
row,Substance,Panning Antibody (antibody that selected the phage-peptide in biopanning)
1,RhD 1 (GLFKIQP),RhD T27
2,RhD 2 (LGHHNPH),RhD T27
3,RhD 3 (NLLPAKL),RhD T27
4,RhD 4 (HTALSTS),RhD T27
5,RhD 5 (TPGSGQF),RhD T27
6,RhD 6 (FSPNNSETTNYT),RhD T27
7,RhD 7 (TTVPDTWVLFPR),RhD T27
8,RhD 8 (SNVPLHWILSPR),RhD T27
9,RhD 9 (WHFEWWRATPSG),RhD T27
10,RhD 10 (NYPAVVSNSLLA),RhD T27
11,RhD 11 (DVYDTRPYHGFM),RhD T27
12,RhD 12 (HQNPWLLWPRGF),RhD T27
13,RhD 13 (VIDWLLCPRGFSACM),RhD T27
14,RhD 14 (DRRIFWWSLRSAPGA),RhD T27
15,RhD 15 (LHAWHRNTIGWWIGF),RhD T27
